Experimental data as given in patent US8658604B2, “Template-fixed beta-hairpin peptidomimetics with protease inhibitory activity” (Polyphor Ltd, priority 2005, dated 2014).
Like-named read-outs stand apart in the source and are kept apart here. Where a SMILES comes first, the peptide text is derived from it.

Key:
[1] = target: Trypsin, from human pancreas (Homo sapiens, UniProt P07477); experiment: Enzymatic assay, trypsin
[2] = target: T1, CathepsinG, from human neutrophils (Homo sapiens, UniProt P08311); experiment: Enzymatic assay, cathepsin G
T1 sequence (P08311 21-244): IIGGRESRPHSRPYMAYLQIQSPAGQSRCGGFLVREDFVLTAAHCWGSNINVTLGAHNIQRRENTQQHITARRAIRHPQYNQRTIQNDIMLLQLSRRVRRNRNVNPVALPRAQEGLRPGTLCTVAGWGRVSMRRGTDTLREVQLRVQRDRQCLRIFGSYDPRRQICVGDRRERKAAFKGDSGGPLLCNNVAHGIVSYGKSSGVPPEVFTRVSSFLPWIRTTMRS

[3] = target: T2, Elastase from human neutrophils (Homo sapiens, UniProt P08246); experiment: Enzymatic assay, elastase; details: for Elastase at 100 μM %: at 100 μM (stated in cell instead of IC50)
T2 sequence (P08246 30-267): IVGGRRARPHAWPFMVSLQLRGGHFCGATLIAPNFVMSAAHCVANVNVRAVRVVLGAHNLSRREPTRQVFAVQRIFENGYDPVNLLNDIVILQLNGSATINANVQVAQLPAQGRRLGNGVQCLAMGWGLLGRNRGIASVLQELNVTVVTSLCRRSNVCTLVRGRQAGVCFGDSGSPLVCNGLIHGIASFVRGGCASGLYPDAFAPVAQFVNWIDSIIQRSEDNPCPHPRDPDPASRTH

Chymase, from human skin = target: T3, Chymase, from human skin (Homo sapiens, UniProt P23946); experiment: Enzymatic assay, chymase
T3 sequence (P23946 22-247): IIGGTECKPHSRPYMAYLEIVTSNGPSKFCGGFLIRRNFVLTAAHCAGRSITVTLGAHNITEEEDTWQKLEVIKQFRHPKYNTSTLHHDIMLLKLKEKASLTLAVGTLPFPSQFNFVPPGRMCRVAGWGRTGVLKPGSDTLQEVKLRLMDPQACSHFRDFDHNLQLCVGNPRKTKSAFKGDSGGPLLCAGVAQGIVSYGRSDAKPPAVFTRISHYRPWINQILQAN

[4] = target: Chymotrypsin, from human pancreas (Homo sapiens, UniProt P17538); experiment: Enzymatic assay, chymotrypsin
Sequence of Chymotrypsin, from human pancreas (P17538 19-263): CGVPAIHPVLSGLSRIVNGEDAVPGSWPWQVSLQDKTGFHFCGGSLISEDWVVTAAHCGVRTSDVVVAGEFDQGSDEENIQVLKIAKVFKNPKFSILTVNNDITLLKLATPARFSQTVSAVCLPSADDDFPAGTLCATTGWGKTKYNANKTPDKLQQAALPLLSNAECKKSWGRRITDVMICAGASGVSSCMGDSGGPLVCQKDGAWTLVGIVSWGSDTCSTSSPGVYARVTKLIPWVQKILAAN

[5] = test system: Tryptase, from human lung; experiment: Enzymatic assay, tryptase; details: at 100 μM
[6] = target: Urokinase from human urine (Homo sapiens, UniProt P00749); experiment: Enzymatic assay, urokinase

Structure (SMILES)	Trypsin at 100 μM % [1] [%]	IC50 ([2]; Cathepsin G IC50) [µM]	Elastase at 100 μM % [3] [at %]	Chymase at 100 μM % (Chymase, from human skin) [%]	Chymotrypsin at 100 μM % [4] [%]	Tryptase At 100 μM % [5] [%]	other results
CCCC[C@@H]1NC(=O)[C@H](CCCNC(=N)N)NC(=O)[C@@H]2CCCN2C(=O)[C@H]2CCCN2C(=O)[C@H](Cc2ccccc2)NC(=O)[C@H](CCCC)NC(=O)[C@H]([C@@H](C)CC)NC(=O)[C@@H]2CCCN2C(=O)[C@@H]2CCCN2C(=O)[C@H](CC(=O)O)NC(=O)[C@H](CO)NC(=O)[C@H](CCCCN)NC(=O)[C@H]([C@@H](C)O)NC1=O [Ex. 8] (HELM PEPTIDE1{R.[Nle].T.K.S.D.P.P.I.[Nle].F.[dP].P}$PEPTIDE1,PEPTIDE1,1:R1-13:R2$$$V2.0)	74.2	0.126	0.8	71.7	5.6		
CCCC[C@@H]1NC(=O)[C@@H]2CCCN2C(=O)[C@H]2CCCN2C(=O)[C@H](CO)NC(=O)[C@@H]2CSSC[C@H](NC1=O)C(=O)N[C@@H]([C@@H](C)O)C(=O)N[C@@H](CCCCN)C(=O)N[C@@H](CO)C(=O)N[C@@H](CC(=O)O)C(=O)N1CCC[C@H]1C(=O)N1CCC[C@H]1C(=O)N[C@@H]([C@@H](C)CC)C(=O)N2 [Ex. 10] (HELM PEPTIDE1{[Nle].C.T.K.S.D.P.P.I.C.S.[dP].P}$PEPTIDE1,PEPTIDE1,2:R3-10:R3|PEPTIDE1,PEPTIDE1,1:R1-13:R2$$$V2.0)	89.9	0.075	0.3	9.4			
CC[C@H](C)[C@@H]1NC(=O)[C@@H]2CCCN2C(=O)[C@@H]2CCCN2C(=O)[C@H](CC(=O)O)NC(=O)[C@H](CO)NC(=O)[C@H](CCCCN)NC(=O)[C@H]([C@@H](C)O)NC(=O)[C@@H]2CSSC[C@H](NC1=O)C(=O)N[C@@H](CO)C(=O)N1CCC[C@@H]1C(=O)N1CCC[C@H]1C(=O)N[C@@H](C1CCCCC1)C(=O)N2 [Ex. 11] (HELM PEPTIDE1{[O=C([C@@H](N[*:1])C1CCCCC1)[*:2]].C.T.K.S.D.P.P.I.C.S.[dP].P}$PEPTIDE1,PEPTIDE1,2:R3-10:R3|PEPTIDE1,PEPTIDE1,1:R1-13:R2$$$V2.0)	6.5	0.095	19	12.1	73.6		
CC[C@H](C)[C@@H]1NC(=O)[C@@H]2CCCN2C(=O)[C@@H]2CCCN2C(=O)[C@H](CC(=O)O)NC(=O)[C@H](CO)NC(=O)[C@H](CCCCN)NC(=O)[C@H]([C@@H](C)O)NC(=O)[C@@H]2CSSC[C@H](NC1=O)C(=O)N[C@@H](CCCNC(=N)N)C(=O)N1CCC[C@@H]1C(=O)N1CCC[C@H]1C(=O)N[C@@H](Cc1ccccc1Cl)C(=O)N2 [Ex. 13] (HELM PEPTIDE1{[O=C([C@H](Cc1ccccc1Cl)N[*:1])[*:2]].C.T.K.S.D.P.P.I.C.R.[dP].P}$PEPTIDE1,PEPTIDE1,2:R3-10:R3|PEPTIDE1,PEPTIDE1,1:R1-13:R2$$$V2.0)	95.0	0.1	8.2	19.9			
CC[C@H](C)[C@@H]1NC(=O)[C@@H]2CCCN2C(=O)[C@@H]2CCCN2C(=O)[C@H](CC(=O)O)NC(=O)[C@H](CN)NC(=O)[C@H](CCCCN)NC(=O)[C@H]([C@@H](C)O)NC(=O)[C@@H]2CSSC[C@H](NC1=O)C(=O)N[C@@H](CO)C(=O)N1CCC[C@@H]1C(=O)N1CCC[C@H]1C(=O)N[C@@H](Cc1ccccc1)C(=O)N2 [Ex. 25] (HELM PEPTIDE1{F.C.T.K.[NC[C@H](N[*:1])C(=O)[*:2]].D.P.P.I.C.S.[dP].P}$PEPTIDE1,PEPTIDE1,2:R3-10:R3|PEPTIDE1,PEPTIDE1,1:R1-13:R2$$$V2.0)	89.3	0.102	3.2	10.0			
CCCC[C@@H]1NC(=O)[C@@H]2CCCN2C(=O)[C@H]2CCCN2C(=O)[C@H](Cc2ccc(O)cc2)NC(=O)[C@@H]2CSSC[C@H](NC1=O)C(=O)N[C@@H]([C@@H](C)O)C(=O)N[C@@H](C)C(=O)N[C@@H](CO)C(=O)N[C@@H](CC1CCCCC1)C(=O)N1CCC[C@H]1C(=O)N1CCC[C@H]1C(=O)N[C@@H](CCC(N)=O)C(=O)N2 [Ex. 82] (HELM PEPTIDE1{[Nle].C.T.A.S.[Cha].P.P.Q.C.Y.[dP].P}$PEPTIDE1,PEPTIDE1,2:R3-10:R3|PEPTIDE1,PEPTIDE1,1:R1-13:R2$$$V2.0)							IC50 ([3]; Elastase IC50): 0.018 µM; Tryptase at 100 μM % [5]: 44.5%; IC50 [4]: 0.0729 µM
CCCC[C@@H]1NC(=O)[C@@H]2CCCN2C(=O)[C@H]2CCCN2C(=O)[C@H](Cc2ccccc2)NC(=O)[C@@H]2CSSC[C@H](NC1=O)C(=O)N[C@@H]([C@@H](C)O)C(=O)N[C@@H](C)C(=O)N[C@@H](CO)C(=O)N[C@@H]([C@@H](C)CC)C(=O)N1CCC[C@H]1C(=O)N1CCC[C@H]1C(=O)N[C@@H](CCC(N)=O)C(=O)N2 [Ex. 137] (HELM PEPTIDE1{[Nle].C.T.A.S.I.P.P.Q.C.F.[dP].P}$PEPTIDE1,PEPTIDE1,2:R3-10:R3|PEPTIDE1,PEPTIDE1,1:R1-13:R2$$$V2.0)					68.7	5	
CCCC[C@@H]1NC(=O)[C@@H]2CCCN2C(=O)[C@H]2CCCN2C(=O)[C@H](Cc2ccc(O)cc2)NC(=O)[C@@H]2CSSC[C@H](NC1=O)C(=O)N[C@@H]([C@@H](C)O)C(=O)N[C@@H](C)C(=O)N[C@@H](CO)C(=O)N[C@@H](C1CCCCC1)C(=O)N1CCC[C@H]1C(=O)N1CCC[C@H]1C(=O)N[C@@H](CCC(N)=O)C(=O)N2 [Ex. 140] (HELM PEPTIDE1{[Nle].C.T.A.S.[O=C([C@@H](N[*:1])C1CCCCC1)[*:2]].P.P.Q.C.Y.[dP].P}$PEPTIDE1,PEPTIDE1,2:R3-10:R3|PEPTIDE1,PEPTIDE1,1:R1-13:R2$$$V2.0)					79.6	4.2	
CCCC[C@@H]1NC(=O)[C@H](CC(=O)O)NC(=O)[C@H]2CCCN2C(=O)[C@H](Cc2ccc(O)cc2)NC(=O)[C@@H]2CSSC[C@H](NC1=O)C(=O)N[C@@H]([C@@H](C)O)C(=O)N[C@@H](C)C(=O)N[C@@H](CO)C(=O)N[C@@H]([C@@H](C)CC)C(=O)N1CCC[C@H]1C(=O)N1CCC[C@H]1C(=O)N[C@@H](CCC(N)=O)C(=O)N2 [Ex. 168] (HELM PEPTIDE1{[Nle].C.T.A.S.I.P.P.Q.C.Y.[dP].D}$PEPTIDE1,PEPTIDE1,2:R3-10:R3|PEPTIDE1,PEPTIDE1,1:R1-13:R2$$$V2.0)					72.9	4.6	
CCCC[C@@H]1NC(=O)[C@@H]2CCCN2C(=O)[C@H]2CCCN2C(=O)[C@H](Cc2ccc(O)cc2)NC(=O)[C@@H]2CSSC[C@H](NC1=O)C(=O)N[C@@H]([C@@H](C)O)C(=O)N[C@@H](C)C(=O)N[C@@H](CO)C(=O)N[C@@H]([C@@H](C)CC)C(=O)N1CCC[C@H]1C(=O)N1CCC[C@H]1C(=O)N[C@@H](CCC(N)=O)C(=O)N2 [Ex. 179] (HELM PEPTIDE1{[Nle].C.T.A.S.I.P.P.Q.C.Y.[dP].P}$PEPTIDE1,PEPTIDE1,2:R3-10:R3|PEPTIDE1,PEPTIDE1,1:R1-13:R2$$$V2.0)					76.0	0	IC50 [1]: > 100 µM; IC50 ([3]; Elastase IC50): 0.05 µM
C[C@@H](O)[C@@H]1NC(=O)[C@@H]2CSSC[C@H](NC(=O)[C@H](CC3CCCCC3)NC(=O)[C@@H]3CCCN3C(=O)[C@@H]3CCCN3C(=O)[C@H](CC(=O)O)NC(=O)[C@H](CO)NC(=O)[C@H](CCCCN)NC1=O)C(=O)N[C@@H](CO)C(=O)N1CCC[C@@H]1C(=O)N1CCC[C@H]1C(=O)N[C@@H](Cc1ccccc1)C(=O)N2 [compound 54] (HELM PEPTIDE1{F.C.T.K.S.D.P.P.[Cha].C.S.[dP].P}$PEPTIDE1,PEPTIDE1,2:R3-10:R3|PEPTIDE1,PEPTIDE1,1:R1-13:R2$$$V2.0)	90			12.9	18		IC50 ([2]; read-out: Cathepsin G IC50): 0.066 µM; Urokinase at 100 μM % [6]: 3.2%; IC50 ([3]; read-out: Elastase IC50): > 100 µM
CCCC[C@@H]1NC(=O)[C@H](Cc2ccccc2)NC(=O)[C@H]2CCCN2C(=O)[C@H](Cc2ccc(O)cc2)NC(=O)[C@@H]2CSSC[C@H](NC1=O)C(=O)N[C@@H]([C@@H](C)O)C(=O)N[C@@H](C)C(=O)N[C@@H](CO)C(=O)N[C@@H]([C@@H](C)CC)C(=O)N1CCC[C@H]1C(=O)N1CCC[C@H]1C(=O)N[C@@H](CCC(N)=O)C(=O)N2 [compound 167] (HELM PEPTIDE1{[Nle].C.T.A.S.I.P.P.Q.C.Y.[dP].F}$PEPTIDE1,PEPTIDE1,2:R3-10:R3|PEPTIDE1,PEPTIDE1,1:R1-13:R2$$$V2.0)					60.2	0.2	
